Assay results: PMC11149917, “Translational and Therapeutic Evaluation of RAS-GTP Inhibition by RMC-6236 in RAS-Driven Cancers” (Cancer Discovery, 2024)

Test system: PRISM panel of 845 cancer cell lines
Assay: PRISM assay
Format: cell-based, human
Experimental: The PRISM cell set comprised 845 cell lines representing more than 45 lineages (see Supplementary Table S1 for cell line information), which largely overlapped with the Cancer Cell Line Encyclopedia; https://portals.broadinstitute.org/ccle). Cell lines were grown in RPMI without phenol red and supplemented with 10% or 20% FBS for adherent and suspended lines, respectively. Parental cell lines were stably infected with a unique 24-nucleotide DNA barcode via lentiviral transduction and blasticidin selection. After selection, barcoded cell lines were expanded and subjected to quality control (Mycoplasma contamination test, an SNP test for confirming cell line identity, and barcode ID confirmation). Approved cell lines were then pooled (20–25 cell lines per pool) based on doubling time similarity and frozen in assay-ready vials.
RMC-6236 was added to 384-well plates at 8-point concentration with 3-fold dilutions in triplicate. These assay-ready plates were then seeded with the thawed cell line pools. Adherent cell pools were plated at 1,250 cells per well, whereas suspension and mixed adherent/suspension pools were plated at 2,000 cells per well. Treated cells were incubated for 5 days, and then lysed. Lysate plates were collapsed together prior to barcode amplification and detection.
Each cell line's unique barcode is located in the 3′UTR of the blasticidin-resistance gene and therefore is expressed as mRNA. Total mRNA was captured using magnetic particles that recognize polyA sequences. Captured mRNA was reverse-transcribed into cDNA and then the sequence containing the unique PRISM barcode was amplified using PCR. Finally, Luminex beads that recognize the specific barcode sequences in the cell set were hybridized to the PCR products and detected using a Luminex scanner which reports the signal as a median fluorescent intensity (MFI).
• Each detection well contained 10 control barcodes in increasing abundances as spike-in controls. For each plate, we first create a reference profile by calculating the median of the log2(MFI) values across negative control wells for each of these spiked-in barcodes. • For each well, a monotonic smooth p-spline was fitted to map the spike-in control levels to the reference profile. Next, we transform the log2(MFI) for each cell barcode using the fitted spline to allow well-to-well comparisons by correcting for amplification and detection artifacts. • Next, the separability between negative and positive control treatments was assessed. In particular, we calculated the error rate of the optimum simple threshold classifier between the control samples for each cell line and plate combination. The error rate is a measure of the overlap of the two control sets and was defined as error = (FP + FN)/n, where FP is false positives, FN is false negatives, and n is the total number of controls. A threshold was set between the distributions of positive and negative control log2(MFI) values (with everything below the threshold said to be positive and above said to be negative) such that this value is minimized. Additionally, we also calculated the dynamic range of each cell line. […] Additionally, any cell line that had less than 2 passing replicates was also omitted for the sake of reproducibility. Finally, we computed viability by normalizing with respect to the median negative control for each plate.
For every gene with nonsilent mutations in at least four cell lines, we compared the AUC values between cells with and without those mutations using a t test. This analysis was carried out for (i) the full data set; (ii) excluding cell lines with nonsilent KRAS mutations; and (iii) excluding cell lines that have either KRAS or NRAS nonsilent mutations.

CCn1c(-c2cc(N3CCN(C)CC3)cnc2[C@H](C)OC)c2c3cc(ccc31)-c1csc(n1)C[C@H](NC(=O)[C@H]1C[C@@H]1C)C(=O)N1CCC[C@H](N1)C(=O)OCC(C)(C)C2 [RMC-6236]
RMC-6236: RevMed PRISM: AUC (22RV1_PROSTATE): 0.9065 | RMC-6236: RevMed PRISM: AUC (A427_LUNG, KRAS p.G12D): 0.4282 | RMC-6236: RevMed PRISM: AUC (A704_KIDNEY): 1 | RMC-6236: RevMed PRISM: AUC (A1207_CENTRAL_NERVOUS_SYSTEM): 1 | RMC-6236: RevMed PRISM: AUC (BICR16_UPPER_AERODIGESTIVE_TRACT): 0.548 | RMC-6236: RevMed PRISM: AUC (CAL54_KIDNEY): 1 | RMC-6236: RevMed PRISM: AUC (CAL72_BONE): 0.8456 | RMC-6236: RevMed PRISM: AUC (CAL120_BREAST): 0.7982 | RMC-6236: RevMed PRISM: AUC (CHLA15_AUTONOMIC_GANGLIA): 0.6747 | RMC-6236: RevMed PRISM: AUC (COLO678_LARGE_INTESTINE, KRAS p.G12D): 0.7109 | RMC-6236: RevMed PRISM: AUC (COLO679_SKIN): 0.8171 | RMC-6236: RevMed PRISM: AUC (CORL23_LUNG, KRAS p.G12V): 0.4445 | RMC-6236: RevMed PRISM: AUC (DETROIT562_UPPER_AERODIGESTIVE_TRACT): 0.5051 | RMC-6236: RevMed PRISM: AUC (DMS53_LUNG): 0.9861 | RMC-6236: RevMed PRISM: AUC (EBC1_LUNG): 0.478 | RMC-6236: RevMed PRISM: AUC (ECGI10_OESOPHAGUS): 0.6603 | RMC-6236: RevMed PRISM: AUC (EW8_BONE): 0.6608 | RMC-6236: RevMed PRISM: AUC (EWS502_BONE): 0.706 | RMC-6236: RevMed PRISM: AUC (FADU_UPPER_AERODIGESTIVE_TRACT): 0.6934 | RMC-6236: RevMed PRISM: AUC (G292CLONEA141B1_BONE): 0.9519 | RMC-6236: RevMed PRISM: AUC (GB2_BILIARY_TRACT): 0.6327 | RMC-6236: RevMed PRISM: AUC (H357_UPPER_AERODIGESTIVE_TRACT, HRAS p.G13S): 0.44 | RMC-6236: RevMed PRISM: AUC (HARA_LUNG): 0.583 | RMC-6236: RevMed PRISM: AUC (HCC827_LUNG): 0.8007 | RMC-6236: RevMed PRISM: AUC (HCC1195_LUNG, NRAS p.Q61L): 0.7308 | RMC-6236: RevMed PRISM: AUC (HCC1937_BREAST): 0.9056 | RMC-6236: RevMed PRISM: AUC (HCSC1_CERVIX, NRAS p.G13R): 1 | RMC-6236: RevMed PRISM: AUC (HDQP1_BREAST): 0.5485 | RMC-6236: RevMed PRISM: AUC (HEYA8_OVARY, KRAS p.G12D): 0.6142 | RMC-6236: RevMed PRISM: AUC (HT29_LARGE_INTESTINE): 0.9177 | RMC-6236: RevMed PRISM: AUC (HT115_LARGE_INTESTINE): 0.7857 | RMC-6236: RevMed PRISM: AUC (IGR39_SKIN): 0.916 | RMC-6236: RevMed PRISM: AUC (JHH6_LIVER): 0.7876 | RMC-6236: RevMed PRISM: AUC (JHOC5_OVARY): 0.7067 | RMC-6236: RevMed PRISM: AUC (KE39_STOMACH): 0.7632 | RMC-6236: RevMed PRISM: AUC (KE97_STOMACH): 0.8452 | RMC-6236: RevMed PRISM: AUC (KKU100_BILIARY_TRACT, KRAS p.G12D): 0.4482 | RMC-6236: RevMed PRISM: AUC (KKU213_BILIARY_TRACT, KRAS p.G13C): 0.6654 | RMC-6236: RevMed PRISM: AUC (KLE_ENDOMETRIUM): 0.9884 | RMC-6236: RevMed PRISM: AUC (KMS34_HAEMATOPOIETIC_AND_LYMPHOID_TISSUE): 0.7785 | RMC-6236: RevMed PRISM: AUC (KOSC2CL343_UPPER_AERODIGESTIVE_TRACT): 0.6166 | RMC-6236: RevMed PRISM: AUC (KP2_PANCREAS, KRAS p.G12R): 0.4026 | Median AUC (PRISM) (KRAS^MUT cell lines): 0.57 | RMC-6236: RevMed PRISM: AUC (KU1919_URINARY_TRACT, NRAS p.Q61R): 0.3992 | RMC-6236: RevMed PRISM: AUC (KYSE30_OESOPHAGUS, HRAS p.Q61L): 0.6346 | RMC-6236: RevMed PRISM: AUC (KYSE150_OESOPHAGUS): 0.7237 | RMC-6236: RevMed PRISM: AUC (KYSE410_OESOPHAGUS, KRAS p.G12C): 0.5271 | RMC-6236: RevMed PRISM: AUC (KYSE450_OESOPHAGUS): 0.5198 | RMC-6236: RevMed PRISM: AUC (LI7_LIVER): 0.743 | RMC-6236: RevMed PRISM: AUC (LOVO_LARGE_INTESTINE, KRAS p.G13D): 0.6638 | RMC-6236: RevMed PRISM: AUC (LOXIMVI_SKIN): 0.876 | RMC-6236: RevMed PRISM: AUC (LS411N_LARGE_INTESTINE): 1
